Values after ≈ are worked out from the molar mass of the structure shown. Like-named read-outs stand apart in the source and are kept apart here.
How the values were obtained:
Acinetobacter Species = test: Optical third-derivative MIC method, culture in broth; format: cell-based; settings: AC/2990; for MIC: Acinetobacter
Description: (§1) The method of FIG. 1 starts at a time equal to zero, t0 (1). Preferably, said t0 is the moment a pure bacteria culture is finished being prepared. Alternatively, said t0 is the moment all wells contain both said bacteria culture and said antimicrobial drug. After the starting of the experiment each well is periodically illuminated with a light source and the intensity of the transmitted light is detected with a photodetector (2). Preferably, each well is illuminated and the intensity of the transmitted light is detected every hour (2). More preferably, each well is illuminated and the intensity of the transmitted light is detected every 5 to 15 min. After a predetermined time length, preferably after 4 hours, a first, a second and a third derivative of said measured intensity is calculated (3) in a first and a second time frame for each well. Preferably, said second time frame is the last measured time frame after the test has been running for said predetermined time length, and said first time frame is the time frame preceding the second time frame. More preferably, said first time frame is between two and three hours and said second time frame is between three and four hours. After the calculation of said derivatives, said first derivative in said second time frame of said reference well is compared to a growth speed threshold value (4). Preferably, said growth speed threshold value is 0.166 (4). If said first derivative in said second time frame of said reference well is larger than or equal to said growth speed threshold value said bacteria culture is classified as Type I (4). If said first derivative in said second time frame of said reference well is smaller than said growth speed threshold value said bacteria culture is classified as Type II (4). Subsequently, independent of the classification of the bacteria culture according to the two types, the method comprises the following steps which are performed for each well or for all wells except said reference well. Both said first and said second time frames are evaluated to see if there is an inflection point present in the second derivative in said first and/or said second time frame (5).
(§2) If said first and/or said second time frame comprise said inflection point than said third derivative in said first time frame is compared to said third derivative in said second time frame (6). If said third derivative in said first time frame is larger than said third derivative in said second time frame, then said first time frame and said second time frame are selected as a first and second time frame to be used in a minimal inhibitory concentration determination method (10). If said third derivative in said first time frame is not larger than said third derivative in said second time frame, then said well is illuminated again after a certain time period, preferably an hour, more preferably 5 to 15 min after said predetermined time length said, with a light source and the intensity of the transmitted light is detected with a photodetector forming a new time frame subsequent to said second time frame (7). A third derivative, and possibly also a first and/or a second derivative, is calculated in said new time frame (7). Further, in step (7) a new first time frame is put equal to said second time frame and a new second time frame to equal to said new time frame. Subsequently, said third derivative in said new first time frame is compared to said third derivative in said new second time frame (8). If said derivative in said new first time frame is larger than said third derivative in said new second time frame, then said new first time frame and said new second time frame are selected as a first and second time frame to be used in a minimal inhibitory concentration determination method (10). […]

[1] = system: Klebsiella pneumonia culture; test: as above; format: cell-based; settings: for HR? at MIC (25%) / HR? at MIC (40%) / HR? at MIC (60%) / HR? at MIC (75%): ratio MIC T2/T1; for MIC: Klebsiella pneumoniae
Description: as §1, §2

## C[C@@H](O)[C@H]1C(=O)N2C(C(=O)O)=C(SCCN=CN)C[C@H]12 [imipenem]
Acinetobacter Species; ratio MIC T2/T1
  HR? at MIC (40%): no (If the ratio of the MIC value in the second time frame over the MIC value in the first time frame is lower than or equal to 4 then the ratio is labelled not to be heteroresistant)
  HR? at MIC (60%): no (If the ratio of the MIC value in the second time frame over the MIC value in the first time frame is lower than or equal to 4 then the ratio is labelled not to be heteroresistant)
  HR? at MIC (75%): no (If the ratio of the MIC value in the second time frame over the MIC value in the first time frame is lower than or equal to 4 then the ratio is labelled not to be heteroresistant)
Acinetobacter Species; ratio MIC T2/T1, omitted (Type II)
  HR? at MIC (25%): yes (If the ratio of the MIC value in the second time frame over the MIC value in the first time frame is higher than or equal to 8 then the ratio is labelled to be heteroresistant)
Acinetobacter Species; 2 h-3 h, omitted from determination (Type II), read-out: MIC (25%) T1
  MIC: 0.25 µg/mL (≈ 0.835 µM)
Acinetobacter Species; 2 h-3 h, read-out: MIC (40%) T1
  MIC: 0.25 µg/mL (≈ 0.835 µM)
Acinetobacter Species; 2 h-3 h, read-out: MIC (60%) T1
  MIC: < 0.125 µg/mL
Acinetobacter Species; 2 h-3 h, read-out: MIC (75%) T1
  MIC: < 0.125 µg/mL
Acinetobacter Species; 3 h-4 h, omitted from determination (Type II), read-out: MIC (25%) T2
  MIC: 128 µg/mL (≈ 428 µM)
Acinetobacter Species; 3 h-4 h, read-out: MIC (40%) T2
  MIC: 0.25 µg/mL (≈ 0.835 µM)
Acinetobacter Species; 3 h-4 h, read-out: MIC (60%) T2
  MIC: < 0.125 µg/mL
Acinetobacter Species; 3 h-4 h, read-out: MIC (75%) T2
  MIC: < 0.125 µg/mL
Acinetobacter Species; FIG. 5A, overall conclusion, read-out: MIC value determined by the method
  MIC: 0.25 µg/mL (≈ 0.835 µM)
[1]; KP/38.3002, Table 5
  HR? at MIC (25%): no (If the ratio of the MIC value in the second time frame over the MIC value in the first time frame is lower than or equal to 4 then the ratio is labelled not to be heteroresistant)
  HR? at MIC (40%): yes (If the ratio of the MIC value in the second time frame over the MIC value in the first time frame is higher than or equal to 8 then the ratio is labelled to be heteroresistant)
  HR? at MIC (60%): yes (If the ratio of the MIC value in the second time frame over the MIC value in the first time frame is higher than or equal to 8 then the ratio is labelled to be heteroresistant)
  HR? at MIC (75%): yes (If the ratio of the MIC value in the second time frame over the MIC value in the first time frame is higher than or equal to 8 then the ratio is labelled to be heteroresistant)
[1]; KP/38.3002, Table 10
  HR? at MIC (25%): yes (If the ratio of the MIC value in the second time frame over the MIC value in the first time frame is higher than or equal to 8 then the ratio is labelled to be heteroresistant)
  HR? at MIC (40%): yes (If the ratio of the MIC value in the second time frame over the MIC value in the first time frame is higher than or equal to 8 then the ratio is labelled to be heteroresistant)
  HR? at MIC (60%): yes (If the ratio of the MIC value in the second time frame over the MIC value in the first time frame is higher than or equal to 8 then the ratio is labelled to be heteroresistant)
  HR? at MIC (75%): yes (If the ratio of the MIC value in the second time frame over the MIC value in the first time frame is higher than or equal to 8 then the ratio is labelled to be heteroresistant)
[1]; KP/38.3002, Table 11
  HR? at MIC (40%): yes (If the ratio of the MIC value in the second time frame over the MIC value in the first time frame is higher than or equal to 8 then the ratio is labelled to be heteroresistant)
  HR? at MIC (60%): yes (If the ratio of the MIC value in the second time frame over the MIC value in the first time frame is higher than or equal to 8 then the ratio is labelled to be heteroresistant)
  HR? at MIC (75%): yes (If the ratio of the MIC value in the second time frame over the MIC value in the first time frame is higher than or equal to 8 then the ratio is labelled to be heteroresistant)
[1]; KP/153.4346
  HR? at MIC (25%): no (If the ratio of the MIC value in the second time frame over the MIC value in the first time frame is lower than or equal to 4 then the ratio is labelled not to be heteroresistant)
  HR? at MIC (40%): no (If the ratio of the MIC value in the second time frame over the MIC value in the first time frame is lower than or equal to 4 then the ratio is labelled not to be heteroresistant)
  HR? at MIC (60%): yes (If the ratio of the MIC value in the second time frame over the MIC value in the first time frame is higher than or equal to 8 then the ratio is labelled to be heteroresistant)
  HR? at MIC (75%): yes (If the ratio of the MIC value in the second time frame over the MIC value in the first time frame is higher than or equal to 8 then the ratio is labelled to be heteroresistant)
[1]; 3 h, KP/38.3002, FIG. 5C, Table 5, 3 h-4 h, read-out: MIC (25%) T1
  MIC: 16 µg/mL (≈ 53.4 µM)
[1]; 3 h, KP/38.3002, FIG. 5C, Table 5, 3 h-4 h, read-out: MIC (40%) T1
  MIC: 0.25 µg/mL (≈ 0.835 µM)
[1]; 3 h, KP/38.3002, FIG. 5C, Table 5, 3 h-4 h, read-out: MIC (60%) T1
  MIC: 0.25 µg/mL (≈ 0.835 µM)
[1]; 3 h, KP/38.3002, FIG. 5C, Table 5, 3 h-4 h, read-out: MIC (75%) T1
  MIC: 0.25 µg/mL (≈ 0.835 µM)
[1]; 3 h, KP/153.4346, 3 h-4 h, read-out: MIC (25%) T1
  MIC: > 256 µg/mL
[1]; 3 h, KP/153.4346, 3 h-4 h, read-out: MIC (40%) T1
  MIC: > 256 µg/mL
[1]; 3 h, KP/153.4346, 3 h-4 h, read-out: MIC (60%) T1
  MIC: 0.5 µg/mL (≈ 1.67 µM)
[1]; 3 h, KP/153.4346, 3 h-4 h, read-out: MIC (75%) T1
  MIC: 0.5 µg/mL (≈ 1.67 µM)
[1]; 3 h, MP/072.3489, 3 h-4 h, read-out: MIC (25%) T1
  MIC: 0.5 µg/mL (≈ 1.67 µM)
[1]; 3 h, MP/072.3489, 3 h-4 h, read-out: MIC (40%) T1
  MIC: 0.5 µg/mL (≈ 1.67 µM)
[1]; 3 h, MP/072.3489, 3 h-4 h, read-out: MIC (60%) T1
  MIC: 0.35 µg/mL (≈ 1.17 µM)
[1]; 3 h, MP/072.3489, 3 h-4 h, read-out: MIC (75%) T1
  MIC: < 0.125 µg/mL
[1]; 4 h, KP/38.3002, FIG. 5C, Table 5, 4 h-5 h, read-out: MIC (25%) T2
  MIC: 16 µg/mL (≈ 53.4 µM)
[1]; 4 h, KP/38.3002, FIG. 5C, Table 5, 4 h-5 h, read-out: MIC (40%) T2
  MIC: 8 µg/mL (≈ 26.7 µM)
